Publication PMC6857076 (Pharmacology Research & Perspectives, 2019)
Where two headings read alike, the source gives them in different places.

Assays:
CRP = details: RA; filgotinib 200 mg QD; cited from earlier work
[1] = tested on: GM-CSF cytokine receptor (JAK2/JAK2); assay: Human whole blood, GM-CSF-induced pSTAT5, CD14+ cells; format: cell-based
Protocol: Blood was warmed to 37°C prior to use.
(§1) Then, 5 µL of PBS or cytokine was added to each well (5 µL/well; final, 10 U/mL EPO, 100 ng/mL G‐CSF, 10 ng/mL GM‐CSF, 5000 U/mL IFNα, 100 ng/mL IFNγ, 50 ng/mL IL‐2, 50 ng/mL IL‐3, 5 ng/mL IL‐4, 50 ng/mL IL‐6, 30 ng/mL IL‐7, 30 ng/mL IL‐10, 30 ng/mL IL‐12, 30 ng/mL IL‐13, 30 ng/mL IL‐15, 50 ng/mL IL‐21, 25 ng/mL IL‐23, 1000 ng/mL IL‐27) and incubated for 15 minutes. Anti‐cell surface antibodies were added 15 minutes prior to cytokine stimulation; anti‐CD14‐Pacific Blue (0.5 µL/well) to GM‐CSF, IFNγ, and TPO‐treated samples; anti‐CD3‐BV650 (0.5 µL/well) plus anti‐CD14‐Pacific Blue (0.5 µL/well) to IL‐6‐treated samples; and anti‐CD19‐BV421 (0.5 µL/well) plus anti‐CD14‐AF488 (0.5 µL/well) to IL‐13‐treated samples.
(§2) One more wash was done with staining buffer and all samples were finally suspended in 150 µL/well of the desired anti‐pSTAT antibodies at 1:150 dilution in staining buffer; anti‐pSTAT1‐AF647 in IFNγ‐treated samples; anti‐pSTAT1‐AF488 and anti‐pSTAT3‐AF647 in IFNα‐, IL‐6‐, and IL‐27‐treated samples; anti‐pSTAT3‐AF647 in G‐CSF‐, IL‐10‐, IL‐21‐, and IL‐23‐treated samples; anti‐pSTAT4‐AF647 in IL‐12‐treated samples; anti‐pSTAT5‐AF647 in EPO‐, GM‐CSF‐, IL‐2‐, IL‐3‐, IL‐7‐, IL‐15‐, and TPO‐treated samples; anti‐pSTAT5‐AF488 and anti‐pSTAT6‐AF647 in IL‐4‐treated samples; and anti‐pSTAT6‐AF647 in IL‐13‐treated samples.
(§3) The lymphocyte population was gated for pSTAT histogram analysis for IFNα‐, IL‐2‐, IL‐3‐, IL‐4‐, IL‐7‐, IL‐10‐, IL‐12‐, IL‐15‐, IL‐21‐, IL‐23‐, and IL‐27‐treated samples; granulocyte population for G‐CSF‐treated samples; CD14^+ cells for GM‐CSF‐, IFNγ‐, and TPO‐treated samples; CD3^+ cells and CD14^+ cells for IL‐6‐treated samples; CD14^+ cells and CD19^+ cells for IL‐13‐treated samples; all events (entire populations) for EPO‐treated cells. Background fluorescence was defined using unstimulated cells and a gate was placed at the foot of the peak to include ~0.5% gated population.
(§4) Histogram statistical analysis was performed using FACSDiva version 8.0.1 (BD Biosciences). Relative fluorescence unit (RFU), which measures the level of pSTAT, was calculated by multiplying the percent positive population and its mean fluorescence. Data from 11 compound concentrations (singlicate at each concentration) were normalized as a percentage of control, as shown in Equation 1:(1) %ofcontrol=100×A−B/C−B
(§5) A, RFU from wells containing compound and cytokine; B, RFU from wells without cytokine (minimum fluorescence); C, RFU from wells containing only cytokine (maximum fluorescence).
(§6) Inhibition curves and IC50 values were determined using Prism software (Version 7, GraphPad).

[2] = human; filgotinib 200 mg QD; cited from earlier work
[3] = tested on: IL-4 cytokine receptor (JAK1/JAK3); assay: Human whole blood, IL-4-induced pSTAT6, lymphocytes; format: cell-based; details: Lymphocyte
Protocol: Blood was warmed to 37°C prior to use.
as §1, §2, §3, §4, §5, §6

[4] = tested on: IFNγ cytokine receptor (JAK1/JAK2); assay: Human whole blood, IFNγ-induced pSTAT1, CD14+ cells; format: cell-based; details: for IC50: Homo sapiens
Protocol: Blood was warmed to 37°C prior to use.
as §1, §2, §3, §4, §5, §6

[5] = tested on: IL-2 cytokine receptor (JAK1/JAK3); assay: Human whole blood, IL-2-induced pSTAT5, lymphocytes; format: cell-based; details: Lymphocyte
Protocol: Blood was warmed to 37°C prior to use.
as §1, §2, §3, §4, §5, §6

[6] = tested on: IFNα cytokine receptor (JAK1/TYK2); assay: Human whole blood, IFNα-induced pSTAT1, lymphocytes; format: cell-based; details: for IC50: Homo sapiens, Lymphocyte
Protocol: Blood was warmed to 37°C prior to use.
as §1, §2, §3, §4, §5, §6

[7] = tested on: IL-7 cytokine receptor (JAK1/JAK3); assay: Human whole blood, IL-7-induced pSTAT5, lymphocytes; format: cell-based; details: Lymphocyte
Protocol: Blood was warmed to 37°C prior to use.
as §1, §2, §3, §4, §5, §6

in vitro = details: both, human, pooled human plasma
[8] = tested on: IL-27 cytokine receptor (JAK1/JAK2, JAK1/TYK2); assay: Human whole blood, IL-27-induced pSTAT1, lymphocytes; format: cell-based; details: Lymphocyte
Protocol: Blood was warmed to 37°C prior to use.
(§7) Anti‐cell surface antibodies were added 15 minutes prior to cytokine stimulation; anti‐CD14‐Pacific Blue (0.5 µL/well) to GM‐CSF, IFNγ, and TPO‐treated samples; anti‐CD3‐BV650 (0.5 µL/well) plus anti‐CD14‐Pacific Blue (0.5 µL/well) to IL‐6‐treated samples; and anti‐CD19‐BV421 (0.5 µL/well) plus anti‐CD14‐AF488 (0.5 µL/well) to IL‐13‐treated samples.
as §3, §4, §5, §6

[9] = unbound, Cav × fu; filgotinib 200 mg QD
[10] = tested on: IL-12 cytokine receptor (JAK2/TYK2); assay: Human whole blood, IL-12-induced pSTAT4, lymphocytes; format: cell-based; details: for IC50: Homo sapiens, Lymphocyte
Protocol: Blood was warmed to 37°C prior to use.
as §1, §2, §3, §4, §5, §6

[11] = tested on: IL-15 cytokine receptor (JAK1/JAK3); assay: Human whole blood, IL-15-induced pSTAT5, lymphocytes; format: cell-based; details: for IC50: Homo sapiens, Lymphocyte
Protocol: Blood was warmed to 37°C prior to use.
as §1, §2, §3, §4, §5, §6

[12] = tested on: IL-6 cytokine receptor (JAK1/JAK2, JAK1/TYK2); assay: Human whole blood, IL-6-induced pSTAT1, CD3+ cells; format: cell-based; details: for IC50: Homo sapiens
Protocol: Blood was warmed to 37°C prior to use.
as §1, §2, §3, §4, §5, §6

[13] = tested on: IL-13 cytokine receptor (JAK1/JAK2, JAK1/TYK2); assay: Human whole blood, IL-13-induced pSTAT6, CD14+ cells; format: cell-based
Protocol: Blood was warmed to 37°C prior to use.
as §7, §3, §4, §5, §6

[14] = tested on: IL-13 cytokine receptor (JAK1/JAK2, JAK1/TYK2); assay: Human whole blood, IL-13-induced pSTAT6, CD19+ cells; format: cell-based
Protocol: Blood was warmed to 37°C prior to use.
as §7, §3, §4, §5, §6

[15] = tested on: EPO cytokine receptor (JAK2/JAK2); assay: Human whole blood spiked with CD34+-derived erythroid progenitor cells, EPO-induced pSTAT5; format: cell-based; details: for IC50: Erythroid progenitor cell, human whole blood
Protocol: CD34^+ cells were then harvested, washed once with Dulbecco's (D)‐PBS, and suspended at 0.5 x 10^6 cells/mL in human whole blood to be used in the EPO stimulation assay.
Blood was warmed to 37°C prior to use.
Background fluorescence was defined using unstimulated cells and a gate was placed at the foot of the peak to include ~0.5% gated population.
as §4, §5, §6

[16] = tested on: IL-6 cytokine receptor (JAK1/JAK2, JAK1/TYK2); assay: Human whole blood, IL-6-induced pSTAT1, CD14+ cells; format: cell-based
Protocol: Blood was warmed to 37°C prior to use.
as §7, §3, §4, §5, §6

[17] = tested on: TPO cytokine receptor (JAK2/JAK2); assay: Human whole blood, TPO-induced pSTAT5, CD14+ cells; format: cell-based
Protocol: Blood was warmed to 37°C prior to use.
as §1, §2, §3, §4, §5, §6

[18] = phase 3 RA studies; cited from earlier work
[19] = tested on: IL-3 cytokine receptor (JAK2/JAK2); assay: Human whole blood, IL-3-induced pSTAT5, lymphocytes; format: cell-based
Protocol: Blood was warmed to 37°C prior to use.
as §1, §2, §3, §4, §5, §6

[20] = tested on: IL-10 cytokine receptor (JAK1/TYK2); assay: Human whole blood, IL-10-induced pSTAT3, lymphocytes; format: cell-based; details: Lymphocyte
Protocol: Blood was warmed to 37°C prior to use.
as §1, §2, §3, §4, §5, §6

[21] = tested on: IL-27 cytokine receptor (JAK1/JAK2, JAK1/TYK2); assay: Human whole blood, IL-27-induced pSTAT3, lymphocytes; format: cell-based; details: Lymphocyte
Protocol: Blood was warmed to 37°C prior to use.
as §1, §2, §3, §4, §5, §6

[22] = tested on: IL-6 cytokine receptor (JAK1/JAK2, JAK1/TYK2); assay: Human whole blood, IL-6-induced pSTAT3, CD3+ cells; format: cell-based
Protocol: Blood was warmed to 37°C prior to use.
as §7, §3, §4, §5, §6

[23] = tested on: IL-21 cytokine receptor (JAK1/JAK3); assay: Human whole blood, IL-21-induced pSTAT3, lymphocytes; format: cell-based; details: Lymphocyte
Protocol: Blood was warmed to 37°C prior to use.
as §1, §2, §3, §4, §5, §6

[24] = tested on: IFNα cytokine receptor (JAK1/TYK2); assay: Human whole blood, IFNα-induced pSTAT3, lymphocytes; format: cell-based; details: Lymphocyte
Protocol: Blood was warmed to 37°C prior to use.
as §1, §2, §3, §4, §5, §6

Q: What does the source list for `O=C(Nc1nc2cccc(-c3ccc(CN4CCS(=O)(=O)CC4)cc3)n2n1)C1CC1` [Filgotinib]?
A: reduction of CRP levels from baseline to week 12 (CRP): -14.9 mg/L; IC50 ([1]; Homo sapiens, read-out: IC50, GM-CSF, pSTAT5): > 20000 nM; IC50, GM-CSF, pSTAT5 ([1]; human whole blood, four donors, mean (SD), CD14+ cells, JAK2/JAK2, GM-CSF 10 ng/mL): not measurable; Cav [2]: 474 nM; IC50 ([3]; read-out: IC50, IL-4, pSTAT6): 3620 nM; IC50 ([3]; read-out: IC50,u, IL-4, pSTAT6): 1460 nM; LogIC50, IFNγ induced pSTAT1, single experiment [4]: -5.17 log[M]; IC50 ([4]; read-out: IC50, IFNγ induced pSTAT1, single experiment): 6760 nM; IC50 ([4]; read-out: IC50, IFNγ, pSTAT1): 6950 nM; IC50 ([4]; read-out: IC50,u, IFNγ, pSTAT1): 2790 nM; IC50 ([5]; read-out: IC50, IL-2, pSTAT5): 2660 nM; IC50 ([5]; read-out: IC50,u, IL-2, pSTAT5): 1070 nM; LogIC50, IFNα induced pSTAT1, single experiment ([6]; Figure S1B, Donor 256, Exp 1): -5.931 log[M]; IC50 ([6]; read-out: IC50, IFNα induced pSTAT1, single experiment): 1170 nM; IC50 ([6]; read-out: IC50, IFNα, pSTAT1): 1320 nM; IC50 ([6]; read-out: IC50,u, IFNα, pSTAT1): 531 nM; IC50 ([7]; read-out: IC50, IL-7, pSTAT5): 3620 nM; IC50 ([7]; read-out: IC50,u, IL-7, pSTAT5): 1460 nM; fraction unbound at 6 h, 1 μmol/L (in vitro): 0.49; IC50 ([8]; read-out: IC50, IL-27, pSTAT1): 2110 nM; IC50 ([8]; read-out: IC50,u, IL-27, pSTAT1): 848 nM; Cav,u [9]: 232.0 nM; LogIC50, IL-12 induced pSTAT4, single experiment [10]: -5.125 log[M]; IC50 ([10]; read-out: IC50, IL-12, pSTAT4): 8030 nM; IC50 ([10]; read-out: IC50, IL-12 induced pSTAT4, single experiment): 7510 nM; IC50 ([10]; read-out: IC50,u, IL-12, pSTAT4): 3220 nM; LogIC50, IL-15 induced pSTAT5, single experiment [11]: -5.526 log[M]; IC50 ([11]; read-out: IC50, IL-15, pSTAT5): 3380 nM; IC50 ([11]; read-out: IC50, IL-15 induced pSTAT5, single experiment): 2980 nM; IC50 ([11]; read-out: IC50,u, IL-15, pSTAT5): 1360 nM; LogIC50, IL-6 induced pSTAT1 (CD3+ cells), single experiment [12]: -6.12 log[M]; IC50 ([12]; read-out: IC50, IL-6, pSTAT1, CD3+ cells): 671 nM; IC50 ([12]; read-out: IC50, IL-6 induced pSTAT1 (CD3+ cells), single experiment): 759 nM; IC50 ([12]; read-out: IC50,u, IL-6, pSTAT1, CD3+ cells): 270 nM; IC50 ([13]; read-out: IC50, IL-13, pSTAT6, CD14+ cells): 5140 nM; IC50 ([13]; read-out: IC50,u, IL-13, pSTAT6, CD14+ cells): 2060 nM; IC50 ([14]; read-out: IC50, IL-13, pSTAT6, CD19+ cells): 2120 nM; IC50 ([14]; read-out: IC50,u, IL-13, pSTAT6, CD19+ cells): 853 nM; IC50 ([15]; Figure S1F, Donor 573, Exp 1, one of four experiments, read-out: IC50, EPO induced pSTAT5, single experiment): 7580 nM; IC50 ([15]; four donors, mean (SD), erythroid progenitor cells, JAK2/JAK2, EPO 10 U/mL, read-out: IC50, EPO, pSTAT5): 9900 nM; IC50 ([15]; unbound (IC50/blood:plasma ratio × fu), erythroid progenitor cells, JAK2/JAK2, read-out: IC50,u, EPO, pSTAT5): 3970 nM; LogIC50, EPO induced pSTAT5, single experiment ([15]; Figure S1F, Donor 573, Exp 1): -5.121 log[M]; IC50 ([16]; read-out: IC50, IL-6, pSTAT1, CD14+ cells): 810 nM; IC50 ([16]; read-out: IC50,u, IL-6, pSTAT1, CD14+ cells): 325 nM; IC50 ([17]; Homo sapiens, read-out: IC50, TPO, pSTAT5): > 17600 nM; IC50, TPO, pSTAT5 ([17]; human whole blood, four donors, mean (SD), CD14+ cells, JAK2/JAK2): not measurable; herpes zoster occurrence [18]: reported; IC50 ([19]; Homo sapiens, Lymphocyte, read-out: IC50, IL-3, pSTAT5): > 20000 nM; IC50, IL-3, pSTAT5 ([19]; human whole blood, four donors, mean (SD), lymphocytes, JAK2/JAK2, IL-3 50 ng/mL): not measurable; IC50 ([20]; read-out: IC50, IL-10, pSTAT3): 2550 nM; IC50 ([20]; read-out: IC50,u, IL-10, pSTAT3): 1020 nM; IC50 ([21]; read-out: IC50, IL-27, pSTAT3): 1160 nM; IC50 ([21]; read-out: IC50,u, IL-27, pSTAT3): 468 nM; IC50 ([22]; read-out: IC50, IL-6, pSTAT3, CD3+ cells): 4940 nM; IC50 ([22]; read-out: IC50,u, IL-6, pSTAT3, CD3+ cells): 1980 nM; IC50 ([23]; read-out: IC50, IL-21, pSTAT3): 3980 nM; IC50 ([23]; read-out: IC50,u, IL-21, pSTAT3): 1600 nM; IC50 ([24]; read-out: IC50, IFNα, pSTAT3): 1060 nM; IC50 ([24]; read-out: IC50,u, IFNα, pSTAT3): 425 nM
